From patent US20220274979A1 (Bayer Pharma Aktiengesellschaft, priority 2018, published 2022)

target: T1, hSOS1 (hSOS1-mediated loading of hK-RasG12C-GDP) (Homo sapiens, UniProt Q07889); experiment: Biochemical Assay 3: hK-RasG12C activation assay by hSOS1 (loading with fluorescent GTP analog, HTRF); details: no GTP
T1 construct: hSOS1 (amino acid 564-1049); made in house; host or cells: E. coli BL21 (DE3)
T1 sequence (Q07889 with tags, fused parts or gaps): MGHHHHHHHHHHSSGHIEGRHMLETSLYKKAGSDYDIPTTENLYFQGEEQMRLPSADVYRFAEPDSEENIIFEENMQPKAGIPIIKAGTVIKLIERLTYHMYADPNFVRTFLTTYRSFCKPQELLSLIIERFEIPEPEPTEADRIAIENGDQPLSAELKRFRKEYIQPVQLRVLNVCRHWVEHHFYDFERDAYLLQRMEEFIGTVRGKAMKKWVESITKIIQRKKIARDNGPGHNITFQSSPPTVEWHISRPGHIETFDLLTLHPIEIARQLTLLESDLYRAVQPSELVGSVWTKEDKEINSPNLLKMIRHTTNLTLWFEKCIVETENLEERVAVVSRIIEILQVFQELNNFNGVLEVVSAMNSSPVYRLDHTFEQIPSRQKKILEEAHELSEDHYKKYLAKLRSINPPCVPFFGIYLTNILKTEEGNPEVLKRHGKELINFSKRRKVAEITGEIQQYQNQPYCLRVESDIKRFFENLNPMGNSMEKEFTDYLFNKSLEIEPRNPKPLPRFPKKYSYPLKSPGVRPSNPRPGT

Row | SMILES | IC50 [nM]
1 | Cc1nc(NC(C)c2ccc(-c3ccccc3CN(C)C)s2)c2cc(NCCn3cccn3)ncc2n1 (stereo not drawn) [Example 54, N4-[1-(5-{2-[(dimethylamino)methyl]phenyl}-2-thienyl)ethyl]-2-methyl-N6-[2-(1H-pyrazol-1-yl)ethyl]pyrido[3,4-d]pyrimidine-4,6-diamine] | 189
2 | Cc1nc(NC(C)c2ccc(-c3ccccc3CO)s2)c2cc(F)ncc2n1 (stereo not drawn) [Example 68, [2-(5-{1-[(6-fluoro-2-methylpyrido[3,4-d]pyrimidin-4-yl)amino]ethyl}thiophen-2-yl)phenyl]methanol] | > 20000
3 | Cc1nc(NC(C)c2ccc(-c3ccccc3CN(C)C)s2)c2cc(OCCCO)ncc2n1 (stereo not drawn) [Example 76, 3-[(4-{[1-(5-{2-[(dimethylamino)methyl]phenyl}thiophen-2-yl)ethyl]amino}-2-methylpyrido[3,4-d]pyrimidin-6-yl)oxy]propan-1-ol] | 73
4 | CNCc1ccccc1-c1ccc(C(C)Nc2nc(C)nc3cnc(F)cc23)s1 (stereo not drawn) [Example 36, 6-fluoro-2-methyl-N-[1-(5-{2-[(methylamino)methyl]phenyl}thiophen-2-yl)ethyl]pyrido[3,4-d]pyrimidin-4-amine] | > 20000
5 | Cc1nc(N[C@H](C)c2cccc(Br)c2)c2cc(N3CCN(Cc4cccnc4)CC3)ncc2n1 [Example 43, N-[(1R)-1-(3-bromophenyl)ethyl]-2-methyl-6-[4-(pyridin-3-ylmethyl)piperazin-1-yl]pyrido[3,4-d]pyrimidin-4-amine] | 446
6 | COCCOc1ncc2nc(C)nc(N[C@H](C)c3cccc(Br)c3)c2n1 [Example 26, N-[(1R)-1-(3-bromophenyl)ethyl]-6-(2-methoxyethoxy)-2-methylpyrimido[5,4-d]pyrimidin-4-amine] | > 20000
7 | Cc1nc(NC(C)c2ccc(-c3ccccc3CN(C)C)s2)c2cc(OCCCN(C)C)ncc2n1 (stereo not drawn) [Example 72, N-[1-(5-{2-[(dimethylamino)methyl]phenyl}thiophen-2-yl)ethyl]-6-[3-(dimethylamino)propoxy]-2-methylpyrido[3,4-d]pyrimidin-4-amine] | 49
8 | COc1cc2c(NC(C)c3cccc4nn(C)cc34)nc(C)nc2cn1 (stereo not drawn) [Example 17, 6-methoxy-2-methyl-N-[1-(2-methyl-2H-indazol-4-yl)ethyl]pyrido[3,4-d]pyrimidin-4-amine] | ≥ 40000
9 | Cc1nc(N[C@H](C)c2cccc(Br)c2)c2nc(Oc3ccccc3)ccc2n1 [Example 32, N-[(1R)-1-(3-bromophenyl)ethyl]-2-methyl-6-phenoxypyrido[3,2-d]pyrimidin-4-amine] | > 20000
10 | Cc1nc(N[C@H](C)c2cccc(Br)c2)c2cc(OCCN(C)C)ncc2n1 [Example 78, N-[(1R)-1-(3-bromophenyl)ethyl]-6-[2-(dimethylamino)ethoxy]-2-methylpyrido[3,4-d]pyrimidin-4-amine] | 2270
11 | Cc1nc(NC(C)c2ccc(-c3ccccc3CN(C)C)s2)c2cc(N3CC(NC(=O)Nc4ccccc4)C3)ncc2n1 (stereo not drawn) [Example 96, 1-[1-(4-{[1-(5-{2-[(dimethylamino)methyl]phenyl}thiophen-2-yl)ethyl]amino}-2-methylpyrido[3,4-d]pyrimidin-6-yl)azetidin-3-yl]-3-phenylurea] | 206
12 | Cc1nc(N[C@H](C)c2ccc(F)cc2)c2cc(OC(C)C)ncc2n1 [Example 15] | 8790
13 | CCOc1cc2c(N[C@H](C)c3cccc(S(C)(=O)=O)c3)nc(C)nc2cn1 [Example 7, 6-ethoxy-2-methyl-N-{(1R)-1-[3-(methylsulfonyl)phenyl]ethyl}pyrido[3,4-d]pyrimidin-4-amine] | 2380
14 | COc1ncc2nc(C)nc(N[C@H](C)c3cccc(Br)c3)c2n1 [Example 24, N-[(1R)-1-(3-bromophenyl)ethyl]-6-methoxy-2-methylpyrimido[5,4-d]pyrimidin-4-amine] | > 20000
15 | Cc1nc(NC(C)c2ccc(-c3ccccc3CN(C)C)s2)c2cc(N3CC(NC(=O)Cc4ccccc4)C3)ncc2n1 (stereo not drawn) [Example 89, N-[1-(4-{[1-(5-{2-[(dimethylamino)methyl]phenyl}thiophen-2-yl)ethyl]amino}-2-methylpyrido[3,4-d]pyrimidin-6-yl)azetidin-3-yl]-2-phenylacetamide] | 132
16 | Cc1nc(NC(C)c2ccc(Br)s2)c2cc(F)ncc2n1 (stereo not drawn) [Example 35] | > 20000
17 | Cc1nc(N[C@H](C)c2cccc(Br)c2)c2nc(N3CCOCC3)ncc2n1 [Example 22, N-[(1R)-1-(3-bromophenyl)ethyl]-2-methyl-6-(morpholin-4-yl)pyrimido[5,4-d]pyrimidin-4-amine] | 12500
18 | CCOc1ncc2nc(C)nc(N[C@H](C)c3cccc(Br)c3)c2n1 [Example 23, N-[(1R)-1-(3-bromophenyl)ethyl]-6-ethoxy-2-methylpyrimido[5,4-d]pyrimidin-4-amine] | 3280
19 | Cc1nc(N[C@H](C)c2cccc(Br)c2)c2cc(NCCN3CCOCC3)ncc2n1 [Example 39] | 1640
20 | Cc1nc(NC(C)c2ccc(-c3ccccc3CN(C)C)s2)c2cc(N3CC(NC(=O)CC4CC4)C3)ncc2n1 (stereo not drawn) [Example 91, 2-cyclopropyl-N-[1-(4-{[1-(5-{2-[(dimethylamino)methyl]phenyl}thiophen-2-yl)ethyl]amino}-2-methylpyrido[3,4-d]pyrimidin-6-yl)azetidin-3-yl]acetamide] | 179
21 | COc1cc2c(N[C@H](C)c3ccc(F)c(Cl)c3)nc(C)nc2cn1 [Example 8] | > 20000
22 | Cc1nc(NC(C)c2ccc(-c3ccccc3CN(C)C)s2)c2cc(Oc3cccc(O)c3)ncc2n1 (stereo not drawn) [Example 52, 3-[(4-{[1-(5-{2-[(dimethylamino)methyl]phenyl}thiophen-2-yl)ethyl]amino}-2-methylpyrido[3,4-d]pyrimidin-6-yl)oxy]phenol] | 532
23 | Cc1nc(N[C@H](C)c2cccc(Br)c2)c2cc(NC3CCOCC3)ncc2n1 [Example 46] | 12800
24 | Cc1nc(NC(C)c2ccc(-c3ccccc3CN(C)C)s2)c2cc(Oc3cccc(C4=NCCN4C)c3)ncc2n1 (stereo not drawn) [Example 58, N-[1-(5-{2-[(dimethylamino)methyl]phenyl}thiophen-2-yl)ethyl]-2-methyl-6-[3-(1-methyl-4,5-dihydro-1H-imidazol-2-yl)phenoxy]pyrido[3,4-d]pyrimidin-4-amine] | 155
